Data published in PMC3386426 (Journal of Medicinal Chemistry, 2012).
Where two headings read alike, the source gives them in different places.

Experiments:
[1] = tested on: L1210 murine leukemia cell line; test: cell growth inhibition in a cytotoxic assay with L1210; type: cell-based
[2] = tested on: L1210 murine leukemia cells; test: in vivo antitumor model, L1210 cells implanted ip into mice
[3] = tested on: L1210 murine leukemia cells; settings: previously established; cited from earlier work
[4] = chemical reactivity/stability under acidic, basic and nucleophilic conditions; type: physicochemical
DNA = DNA alkylation in cell-free systems; type: biochemical
[5] = human plasma
[6] = tested on: L1210 murine leukemia cell line; settings: natural enantiomer; cited from earlier work

Nc1cccc2c1C(=O)C=C1N(C(=O)c3cc4cc(NC(=O)c5cc6ccccc6[nH]5)ccc4[nH]3)CC3CC123 (racemic) [(±)-20, N-(2-(5-Amino-4-oxo-1,2,9,9a-tetrahydrocyclopropa[c]benzo[e]indole-2-carbonyl)-1H-indol-5-yl)-1H-indole-2-carboxamide]
fold less active than 4 (active enantiomer of 20) ([1]; L1210, inferred for the active enantiomer from the racemate): 3–4 fold

O=C1Nc2cccc3c4c(cc(c23)O1)N(C(=O)c1cc2cc(NC(=O)c3cc5ccccc5[nH]3)ccc2[nH]1)CC4CCl (single isomer, unassigned; (+)) [(+)-6, N-(2-(10-(Chloromethyl)-5-oxo-5,8,9,10-tetrahydro-4H-pyrrolo[3',2':5,6]naphtho[1,8-de][1,3]oxazine-8-carbonyl)-1H-indol-5-yl)-1H-indole-2-carboxamide]
long term cures (>250 days) ([2]; 9000 μg/kg ip on days 1, 5, 9): 5/10
antitumor activity over dose range ([2]; 300 to 9000 μg/kg ip on days 1, 5, 9 (30-fold range)): productive antitumor activity over the entire and much larger dose range examined

O=C(Nc1ccc2[nH]c(C(=O)N3C[C@H](CCl)c4c3cc(O)c3ccccc43)cc2c1)c1cc2ccccc2[nH]1 [Compound 4, seco-CBI-indole2]
IC50 ([1]; Mus musculus, L1210, L1210 cell line): 0.03 nM
T/C (percent survival) ([2]; 60 μg/kg ip on days 1, 5, 9): 197
long term (250 days) survivors ([2]; 60 μg/kg ip on days 1, 5, 9): 1/10
toxicity (premature death of the animals) ([2]; doses of 100–500 μg/kg ip on days 1, 5, 9): toxic
optimal dose range [3]: 0.06 to 0.1 mg/kg

O=C1Nc2cccc3c4c(cc(c23)O1)N(C(=O)c1cc2cc(NC(=O)c3cc5ccccc5[nH]3)ccc2[nH]1)CC4CCl (centres unmarked) [Compound 6, N-(2-(10-(Chloromethyl)-5-oxo-5,8,9,10-tetrahydro-4H-pyrrolo[3',2':5,6]naphtho[1,8-de][1,3]oxazine-8-carbonyl)-1H-indol-5-yl)-1H-indole-2-carboxamide]
times more potent than its N-Boc precursor 16 ([1]; L1210, relative to 16): 100 to 1000 times
stability under acidic conditions ([4]; 1:1 TFA:CH2Cl2, 4 N HCl in EtOAc, up to 72 h at 23 °C): stable
DNA alkylation (DNA): incapable of alkylating DNA
free drug release [5]: 5%

CC(C)(C)OC(=O)N1C[C@@H](CCl)c2c1cc1c3c(cccc23)NC(=O)O1 [Compound 16, tert-Butyl 10-(Chloromethyl)-5-oxo-9,10-dihydro-4H-pyrrolo[3',2':5,6]naphtho[1,8-de][1,3]oxazine-8(5H)-carboxylate]
fold less active than N-Boc-CBI ([1]; L1210, relative to N-Boc-CBI): 50–100 fold
stability of cyclic carbamate to hydrolysis under acidic conditions ([4]; 1:1 TFA:CH2Cl2, 4 N HCl in EtOAc, 48 h at 23 °C): stable
stability to nucleophiles BnSH and BnOH ([4]; 100 equiv in MeOH and THF at 23 °C for 48 h): completely stable
stability to BnNH2 in MeOH ([4]; BnNH2 (100 equiv) in MeOH, 24 h): rapidly cleaved
stability to BnNH2 in THF ([4]; BnNH2 in THF): stable
hydrolysis of cyclic carbamate with NaHCO3 ([4]; NaHCO3 in protic solvents): slowly hydrolyzed
stability to organic bases ([4]; organic bases in aprotic solvents): stable

CC(C)(C)OC(=O)N1C[C@H]2C[C@@]23C1=CC(=O)c1ccccc13 [N-Boc-CBI]
IC50 [6]: 80 nM
